How the values were obtained:
[1] = Deaths of animals during treatment, Example 1; assay type: in vivo, nude mice (C57BL/6JBom-nu); details: single substance 10 μg/kg every 12 hours; dissection: metastasis / abdominal carcinosis
Description: (§1) Female nude mice (C57BL/6JBom-nu, Bomholtgård Breeding and Research Centre, Denmark), 8 weeks old, with a mean body weight of 22.9 g (range 20.4-25.5), were used in this investigation. The mice were kept one to each cage in a laminar filtered airflow cabinet under pathogen-free conditions. The animals were kept under a constant temperature (22±2° C.) and relative humidity (55±5%), with 12 h dark/light cycles. They were fed on a standard pellet diet (R 34, Lactamin, Vadstena, Stockholm) and given water ad libitum. All experiments were performed by aseptic techniques under laminar airflow.
(§2) The animals were divided into two groups of 10 mice each. The first group received s.c. injections of 100 μl saline solution containing a mixture of octreotide (Sandostatin®, Novartis), galanin (synthetic human galanin, Sigma, Stockholm), and serotonin (5-hydroxytryptamine, oxalate salt, Sigma) at 10 μg/kg body weight each. Injections were administered every 12 hours for five days. The second group served as controls and received only saline solution. Thirty-two mice were implanted with the tumour as described above and left for seven days. After measuring the tumour diameter, the animals were divided into four groups of eight. […]

[2] = tested on: N-methyl-N′-nitroguanidine-induced rat colonic adenocarcinoma; experiment: Tumour volume and wet weight, Example 1; assay type: in vivo, nude mice (C57BL/6JBom-nu); details: single substance 10 μg/kg body weight every 12 hours for five days, vs controls; for tumour volume: P=0.4; for tumour weight: P=0.8
Description: as §1
Twenty mice were injected s.c. with 100 μl cell suspension containing 2×10^6 viable cells of an N-methyl-N′-nitroguanidine-induced rat colonic adenocarcinoma (provided kindly by Professor L.-O. Hafström, Departnent of Surgery, University Hospital, Umeå, Sweden). After seven days, the greatest and least diameters of the tumours were measured and the volume was calculated with the use of the following formula:
volume=(mean diameter)^333 π/6.
(§3) The animals were divided into two groups of 10 mice each. The first group received s.c. injections of 100 μl saline solution containing a mixture of octreotide (Sandostatin®, Novartis), galanin (synthetic human galanin, Sigma, Stockholm), and serotonin (5-hydroxytryptamine, oxalate salt, Sigma) at 10 μg/kg body weight each. Injections were administered every 12 hours for five days. The second group served as controls and received only saline solution. Thirty-two mice were implanted with the tumour as described above and left for seven days. After measuring the tumour diameter, the animals were divided into four groups of eight. The first group was injected with 100 μl saline solution, the second with 100 μl saline solution containing 10 μg/kg body weight octreotide, the third group with 100 μl saline solution containing 10 μg/kg body weight galanin, and the last group was injected with 100 μl saline solution containing 10 μg/kg bodyweight serotonin. Injections were administered every 12 hours for five days.
(§4) At the end of the experiments, the animals were weighed and then decapitated. The tumours were dissected carefully and their diameters and weight were determined. Three tissue samples cut perpendicular to the surface were taken from each tumour, two from the periphery and one from the middle. The tissue samples were fixed overnight in 4% buffered paraformaldehyde, embedded in paraffin wax, and cut at 5 μm.

[3] = tested on: N-methyl-N′-nitroguanidine-induced rat colonic adenocarcinoma; experiment: Apoptosis by in situ hybridisation, apoptotic index, Example 1; assay type: in vivo, nude mice (C57BL/6JBom-nu); details: single substance 10 μg/kg, five days; for Apoptotic index, second in situ hybridisation kit (mean±SD): controls 3.5±0.6, P=0.15; for Apoptotic index, first in situ hybridisation kit: vs controls, P=0.2
Description: as §3, §4
Apoptosis was detected by in situ hybridisation using two different kits (TA200 and TA5411) from R&D Systems Inc (Minneapolis, Minn. USA). Both kits detect DNA fragmentation, but with two different detection approaches. In the first kit, fragments of DNA were detected by incorporating modified nucleotides at the 3′OH ends of the fragments, using terminal deoxynucleotidyl transferase (TdT). The incorporated 5-bromodeoxyuridine (BrdU) was detected by a biotinylated anti-BrdU antibody. A streptavidin-conjugated horsradish peroxidase specifically bound to the biotinylated antibody. In the second kit, TdT added biotinylated nucleotides to the 3′OH ends of the DNA fragments. Again, a streptavidin-conjugated horseradish peroxidase specifically bound to the biotinylated DNA fragments. The peroxidase in both kits was detected by diaminobenzidine tetrahydrochloride (DAB). The sections were counter-stained with methyl green. […]
Apoptotic index was determined using the unbiased counting frames (as described in detail previously), adapted to computer image analysis (Palmqvist et al., 1998). […] About 40 fields from each tumour, spread randomly in sections from the three tissue samples, were measured. For each tumour about 200 positive and 200 negative nuclei were counted. The labelling index (LI) was calculated as follows: […]

rat colonic cancer cells = details: in vivo; cited from earlier work
[4] = tested on: N-methyl-N′-nitroguanidine-induced rat colonic adenocarcinoma; experiment: Proliferation (PCNA immunostaining), proliferation index, Example 1; assay type: in vivo, nude mice (C57BL/6JBom-nu); details: single substance 10 μg/kg, five days; vs controls, P=0.8
Description: as §2
At the end of the experiments, the animals were weighed and then decapitated. The tumours were dissected carefully and their diameters and weight were determined. […]
To detect proliferation, the sections from the tumour tissue samples from all the animals were immnmostained with the avidin-biotin-complex (ABC) method (Dakopatts, Glostrup, Denmark), as described in detail earlier (E1-Salhy et al., 1993). […] Peroxidase was detected by immersing the sections in 50 ml Tris-buffer containing 25 mg diaminobenzidine tetrahydrochloride (DAB) and 10 μl of 30% H2O2 followed by slight counter-staining in Mayer's haematoxylin. […] The proliferating index was determined as described for apoptosis.

[5] = tested on: asymptomatic advanced colon carcinoma; details: about 7 μ/kg/d; patients; cited from earlier work

CC(C)C[C@H](NC(=O)CNC(=O)[C@H](CC(N)=O)NC(=O)[C@H](CCCCN)NC(=O)[C@H](CC(=O)O)NC(=O)[C@H](CO)NC(=O)[C@H](Cc1ccccc1)NC(=O)[C@H](CO)NC(=O)[C@H](CCCNC(=N)N)NC(=O)[C@H](Cc1cnc[nH]1)NC(=O)[C@H](CC(N)=O)NC(=O)CNC(=O)[C@@H](NC(=O)[C@H](C)NC(=O)[C@H](Cc1cnc[nH]1)NC(=O)[C@@H]1CCCN1C(=O)CNC(=O)[C@H](CC(C)C)NC(=O)[C@H](CC(C)C)NC(=O)[C@H](Cc1ccc(O)cc1)NC(=O)CNC(=O)[C@H](C)NC(=O)[C@H](CO)NC(=O)[C@H](CC(N)=O)NC(=O)[C@H](CC(C)C)NC(=O)[C@@H](NC(=O)[C@H](Cc1c[nH]c2ccccc12)NC(=O)CN)[C@@H](C)O)C(C)C)C(=O)N[C@H](C(=O)N[C@@H](CO)C(=O)O)[C@@H](C)O [galanin]
deaths during the experiment [1]: Two mice in the group treated with galanin died

NCCc1c[nH]c2ccc(O)cc12 [serotonin, 5-hydroxytryptamine]
tumour volume [2]: no significant difference | tumour weight [2]: no significant difference | Apoptotic index, second in situ hybridisation kit (mean±SD) [3]: 4±0.5 | Apoptotic index, first in situ hybridisation kit [3]: no difference | mitotic rate of rat colonic cancer cells (rat colonic cancer cells): increase | tumour proliferation index [4]: Neither was there any difference

octreotide
tumour volume [2]: no significant difference | tumour weight [2]: no significant difference | Apoptotic index, second in situ hybridisation kit (mean±SD) [3]: 3±1.1 | Apoptotic index, first in situ hybridisation kit [3]: no difference | progression of the disease [5]: no effect | tumour proliferation index [4]: Neither was there any difference

— patent US6518246B1, “Pharmaceutical composition and method for the treatment of neoplastic cells” (priority 2001, dated 2003)
